Measured values published in patent US12268700B2, “3-o-sulfo-galactosylceramide analogs as activators of type II NKT cells and uses thereof” (The United States of America, as represented by the …, priority 2018, dated 2025).
Entries after “also recorded” stand apart in the source; their conditions may differ.

Legend:
[1] = tested on: XV19 type II NKT hybridoma; test: In vitro stimulation of type II NKT hybridoma with lipid-loaded plate-coated CD1d monomers, IL-2 ELISA; assay type: cell-based, mouse; settings: 24 h, 0.5 μg plate-coated CD1d monomers loaded with 4 μM sulfatide or analogues, 10 nM α-GalCer or β-GalCer
Procedure: The hybridoma XV19 was created by Cardell, S. et al. (J. Experimental Medicine, 182: 993-1004 (1995)) and was provided by Susanna Cardell.
(§1) CD monomers were loaded as described above. Flat bottom 96 well plates were coated overnight with 0.5 μg of CD1d monomers loaded with 4 μM of sulfatide or sulfatide-analogues, 10 nM of α-GalCer or with 10 ng/ml of anti-CD3 antibody (Biolegend, San Diego, CA) dissolved in PBS. Plates were then washed in PBS and complete medium. 50×10^3 hybridoma cells in 200 μl of complete medium were plated in presence or not of anti-CD1d blocking antibody 20H2.
(§2) Cells were cultured for 24 h at 37° C., 5% CO2. The production of IL-2 was measured by ELISA from the culture supernatant according to the recommendations of the manufacturer.
(§3) Therefore, well-described type I and type II NKT hybridoma cell lines were used in this experiment. The type I NKT hybridoma DN32.D3 expresses the murine semi-invariant TCR Vα14Jα18 associated with the Vβ8.2/Jβ2.4 chain (Brutkiewicz et al.) and is specific for α-GalCer.

[2] = tested on: DN32.D3 type I NKT hybridoma; test: In vitro stimulation of type I NKT hybridoma with lipid-loaded plate-coated CD1d monomers, IL-2 ELISA; assay type: cell-based, murine; settings: 24 h; for DN32 activation (IL-2 production): 0.5 μg plate-coated CD1d monomers loaded with 4 μM sulfatide or analogues, 10 nM α-GalCer or β-GalCer; for level of activation (amount of IL-2 produced) of DN32.D3, compared with reference lipids: CD1d monomers loaded with 4 μM lipid
Procedure: The hybridoma cell line DN32.D3 created by Brutkiewicz et al. (R. R. Brutkiewicz et al., J. Experimental Medicine, 183: 1913-1919 (1995)) that express the TCR semi-invariant α-chain Vα14Jα18 associated with the Vβ8.2Jβ2.4 chain was used.
as §1, §2, §3

[3] = tested on: CT26 (colon cancer) cells; test: CT26 lung metastasis model, lung nodule count; assay type: in vivo, BALB/c mice; settings: for number of lung nodules: same day 33 nmol sulfatide or analogues or 500 pmol α-GalCer i.p., counted 8 to 12 days, compared to vehicle, FIG. 5
Procedure: 200 μg of sulfatide of sulfatide-analogues dry powder were resuspended with 40 μl of PBS-Tween20-0.05% and warm at 37° C. for 10 min. Then, 697 μl of DPBS were added to obtain a concentration of 300 μg/ml of lipid. Mice received an i.p injection of 100 μl of sulfatide or analogue mix that is equivalent to […] of lipid. A solution of 500 μM of α-GalCer in DPBS-tween20-0.05% was thawed and sonicated at 60° C. for 2 min and a solution at 10 μM was prepared in DPBS. Mice were injected i.p. with […] (100 μl) of α-GalCer solution.
The CT26 cell were cultured in tumor medium: RPMI 1640 (Life technologies) supplemented with 10% heat inactivated fetal calf serum, 2 mM L-Glutamine, penicillin, streptomycin, 10 mM HEPES, 1/100 vol non-essential amino acids, and 1 mM sodium pyruvate 1/1000 of β-mercaptoethanol. Cells were harvested at 80-85% confluence, detached from plastic with trypsin treatment and resuspended at 5×10^6 cell/ml in DPBS. Mice were injected i.v in the tail vein with 0.5×10^6 CT26 cells (100 μl). The same day, mice were injected i.p. with […] of sulfatide or sulfatide analogues, or 10 nmol of α-GalCer.
WT BALB/c mice were injected intravenously (i.v.) with 0.5×10^6 CT26 (colon cancer) and treated the same day with 33 nmol of sulfatide or sulfatide-analogues or 500 pmol of α-GalCer injected i.p. Lung nodules were counted 8 to 12 days after tumor inoculation according to the results in the monitoring mice. n=10 from 2 independent experiments. The results are shown graphically in FIG. 5.
WT BALB/c mice were inoculated i.v. with 5×10^5 CT26 cells and treated i.p. with 30, 5 or 0.5 nmol of sulfatide or C24:2. The number of nodules in the lung was determined 8 to 12 days after injection.
WT BALB/c mice were injected i.v. with 0.5×10^6 CT26 (colon cancer cells) and treated the same day with […] of sulfatide or C24:2 or 500 pmol of α-GalCer injected i.p. Mice were injected i.p with 200 μg/ml of anti-IFNγ or rat IgG isotype control on day 0, day 1, day 2, day 3, and day 5. Lung nodules were counted 8 to 12 days after tumor inoculation according to the results in the monitoring mice. The results are shown in FIG. 8A (Rat IgG) and FIG. 8B (anti-IFN-γ).

[4] = tested on: CT26 (colon cancer) cells; settings: murine model of lung metastasis; Ambrosino et al. 2007; cited from earlier work
[5] = tested on: lung mononuclear cells; test: Ex vivo stimulation of lung mononuclear cells with lipid-pulsed BMDC, IL-13 ELISA; assay type: cell-based, BALB/c mice; settings: BMDC pulsed with 33 μM lipid, 4 days, FIG. 3; for production of IL-13: ELISA of culture supernatant
Procedure: For the preparation of lung mononuclear cells, lungs were perfused with warm Dulbecco's Phosphate-Buffered Saline (DPBS) (Life Technologies, Frederick, MD) from the heart right ventricle. Single cell suspension was prepared with a Lung Dissociation Kit (Miltenyi Biotec, San Diego, CA) according to the manufacturer's protocol. Lung mononuclear cells (LMNC) were then purified from the cell suspension by a 40%/80% gradient of Percoll (Sigma-Aldrich, St-Louis, MO).
BMDC were prepared by collecting bone marrow cells from femurs and tibias of BALB/c mice in complete medium. Cells were suspended at the concentration of 0.2×10^6/ml in complete medium supplemented with 20 ng/ml of GM-CSF (Peprotech, Rocky Hill, NJ) and 2×10^6 cells were plated per Petri dish (Corning, Tewksbury, MA). Fresh medium supplemented with 20 ng/ml GM-CSF was added at day 3 and refreshed at day 6. At day 8 the cells were harvested, washed in complete medium and suspended at 0.4×10^6/ml in complete medium supplemented with 10 ng/ml of GM-CSF and 1 μg/ml of LPS (Sigma-Aldrich). 4×10^6 cells were plated per Petri dish for 24 h.
200 μg of sulfatide of sulfatide-analogues dry powder was dissolved in 100 μl of DPBS containing 0.5% Tween20 (PBS-Tween) (Avantor performance materials). BMDCs were washed and put at the concentration of 1×10^7/ml and incubated 3 h at 37° C. in presence of 30 μg/ml of sulfatide or sulfatide-analogues or the same volume of PBS-Tween as vehicle control. After washing, 100×10^3 pulsed BMDCs were cultured with 0.5×10^6 lung mononuclear cells in complete medium in flat-bottom 96 well plates for 4 days at 37° C., 5% CO2. When indicated, 10 μg/ml of anti-CD1d antibody (20H2, Harlan, Indianapolis, IN) was added. Supernatants were harvested, and IL-13 production was determined by ELISA according to the recommendations of the manufacturer (eBioscience).
Lung mononuclear cells from WT BALB/c mice were stimulated for 4 days in presence of BMDC (bone marrow derived dendritic cells) pulsed with 33 μM of sulfatide, vehicle control, or 33 μM of the sulfatide analogues pC24:1, pC24:2, or C24:2 in presence or absence of the anti-CD1d blocking antibody 20H2 to confirm the dependency of the IL-13 production on CD1d. The production of IL-13 was measured by ELISA in the culture supernatant. The results are shown in FIG. 3 (n=4, duplicates from 2 independent experiments.

[6] = tested on: IFN-γ; test: Serum cytokine production after i.p. lipid injection (multiplex analysis); assay type: in vivo, mice; settings: bled 3, 6, 12 and 24 h, FIG. 7
Procedure: Mice were injected i.p. with lipids and bled 3, 6, 12 and 24 h after injection. The cytokine production in the serum was determined by multiplex analysis.

Row | Compound | XV19 activation (IL-2 production) [1] | DN32 activation (IL-2 production) [2] | number of lung nodules ([3]; 0.5×10^6 CT26 i.v.) | development of lung nodules (previously demonstrated) [4] | production of IL-13 [5] | production of IL-13 in presence of anti-CD1d blocking antibody 20H2 [5] | level of activation (amount of IL-2 produced) of DN32.D3, compared with reference lipids [2] | production of IFN-γ in the serum [6] | protection from tumor nodules with anti-IFN-γ versus rat IgG isotype control ([3]; 0.5×10^6 CT26 i.v., 30 μmol i.p., anti-IFNγ or rat IgG i.p. on days 0, 1, 2, 3, 5, FIGS. 8A-8B) | reduction of tumor nodules, dose study ([3]; 5×10^5 CT26 i.v., 30, 5 or 0.5 nmol i.p., result stated for 5 nmol, FIG. 6)
1 | CCCCCCCC/C=C\CCCCCCCCCCCCCC(=O)N[C@@H](CO[C@H]1O[C@H](CO)[C@H](O)[C@H](OS(=O)(=O)O)[C@H]1O)[C@H](O)/C=C/CCCCCCCCCCCCC [Sulfatide C24:1, 3-o-sulfo-α-galactosylceramide, d18:1/C24:1, reference compound] | activated | not | increased the number of lung nodules | increased the development of nodules | – | – | – | – | – | –
2 | (2S,3S,4R)-1-(3-O-Sodiumsulfonyl-β-D-galactopyranosyloxy)-2-(N-15Z-tetracosenoylamino)octadecane-3,4-diol [pC24:1] | activated XV19 | also activated DN32.D3 | did not have any effect | – | induced a high production of IL-13 | abrogated | lower than that induced by α-GalCer and in the same range as the one induced by β-GalCer | – | – | –
3 | CCCCCCCCCCCCCCCCCCCCCCCCCC(=O)N[C@@H](CO[C@H]1O[C@H](CO)[C@H](O)[C@H](O)[C@H]1O)[C@H](O)[C@H](O)CCCCCCCCCCCCCC [α-GalCer, α-galactosylceramide, reference compound] | not | activated | inhibited their development | abrogated it | – | – | – | – | – | –
4 | CCCCC/C=C\C/C=C\CCCCCCCCCCCCCC(=O)N[C@@H](CO[C@@H]1O[C@H](CO)[C@H](O)[C@H](OS(=O)(=O)O)[C@H]1O)[C@H](O)/C=C/CCCCCCCCCCCCC [C24:2, (2S,3R,4E)-1-(3-O-Sodiumsulfonyl-β-D-galactopyranosyloxy)-2-(N-15Z,18Z-tetracosadienoylamino)octadec-4-en-3-ol] | activated only XV19; also recorded: activated only type II NKT cells | not DN32.D3; also recorded: not type I | significantly reduced the number of lung nodules; also recorded: induced a significant reduction of the number of lung nodules | – | induced a high production of IL-13 | abrogated | – | induced a high production of IFN-γ | dependent on IFN-γ | efficient for the reduction of tumor nodules
5 | CCCCC/C=C\C/C=C\CCCCCCCCCCCCCC(=O)N[C@@H](CO[C@@H]1O[C@H](CO)[C@H](O)[C@H](OS(=O)(=O)O)[C@H]1O)[C@H](O)[C@H](O)CCCCCCCCCCCCCC [pC24:2, (2S,3S,4R)-1-(3-O-Sodiumsulfonyl-β-D-galactopyranosyloxy)-2-(N-15Z,18Z-tetracosadienoylamino)octadecan-3,4-diol] | activated XV19 | also activated DN32.D3 | did not have any effect | – | induced a high production of IL-13 | abrogated | lower than that induced by α-GalCer and in the same range as the one induced by β-GalCer | – | – | –
6 | β-galactosylceramide [β-GalCer, reference compound] | not | activated | – | – | – | – | – | – | – | –
